From patent US6407136B1, “1,4-dithiin and 1,4-dithiepin-1,1,4,4, tetroxide derivatives useful as antagonists of the human galanin receptor” (Ortho-McNeil Pharmaceutical, Inc., priority 1999, dated 2002)
Read-outs that look alike come from different tables or passages of the source.

What was measured:
[1] = molecular target: T1, hGALR-1 contained in membranes from human Bowes melanoma cells (Homo sapiens, UniProt P47211); assay: Human Galanin-1 Receptor Binding Assay (SPA, 125I human galanin); details: inhibition of 125I human galanin binding
T1 construct: hGALR-1 that is contained in membranes from human Bowes melanoma cells; endogenous in cells; host or cells: human Bowes melanoma cells (membranes)
T1 sequence (P47211 1-349): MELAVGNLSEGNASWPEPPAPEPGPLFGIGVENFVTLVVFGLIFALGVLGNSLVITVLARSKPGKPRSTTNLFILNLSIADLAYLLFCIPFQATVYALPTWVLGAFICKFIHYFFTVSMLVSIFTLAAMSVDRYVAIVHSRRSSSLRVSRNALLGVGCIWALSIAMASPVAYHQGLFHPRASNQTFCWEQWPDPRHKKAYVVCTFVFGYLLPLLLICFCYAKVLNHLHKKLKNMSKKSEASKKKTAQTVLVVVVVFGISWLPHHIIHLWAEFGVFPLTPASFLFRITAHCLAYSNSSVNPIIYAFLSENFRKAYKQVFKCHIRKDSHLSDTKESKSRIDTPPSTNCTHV
Description: Human Galanin-1 Receptor Binding Assay
This assay determines the concentration (IC50) of a test compound which prevents 50% of galanin from binding to the hGALR-1 that is contained in membranes from human Bowes melanoma cells bound to wheat germ agglutinin conjugated Scintillation Proximity Assay (SPA) beads. The IC50 value is obtained by measuring the effect of half log increment dilutions of the test compound in duplicate using a 96-well plate (eight-rows, 12-columns).
The SPA beads (500 mg) were dissolved in 12.5 mL of assay buffer composed of 20 mM DMSO-HEPES (pH 7.4), 0.1% bovine serum albumin, 2 mM MgCl2, 2 mM CaCl2, and protease inhibitors. Enough of this suspension for five plates (25 μL×5×96 wells=12000 μL) was dispensed into a 50 mL sterile Falcon tube. The amount of membranes required for five plates was then added (50 μg×5×96 wells), followed by 32.5 mL of 30% DMSO-HEPES buffer. The mixture was placed on a rotator and agitated for 0.5 hours and the non-specific binding sites on the beads were blocked by the addition of 5% [final] fetal bovine serum. Each well of the 96-well plate received 100 μL of this mixture.
To the control column (column 12) rows A and B was added 3.75 μL of a 300 μM solution of galantide in 30% DMSO-HEPES buffer, to rows C and D was added 3.75 μL of 30% DMSO-HEPES buffer and to rows E and F was added 3.75 μL of a 300 μM solution of galanin in 30% DMSO-HEPES buffer. In columns 1 through 11 were added solutions of the test compound in 30% DMSO-HEPES buffer starting at 30 μM and decreasing in concentration in half-log dilutions. A solution of radioactive ^125I human galanin (46.25 μL), prepared from 25 micro Curies of ^125I human galanin (2000 ci/mmol) and 500 μL of assay buffer, was added to each well. The plate was sealed with adhesive paper and incubated for 16 hr at room temperature before the quench-corrected bound radioactivity was measured in a Topcount® apparatus. For each dilution, the % inhibition of galanin binding was calculated as follows:
Total binding (T)=Mean counts/minute (cpm) in row C and D in column 12 Non-specific binding (NSB)=Mean cpm in row E and F in column 12 Total specific binding (TS)=T−NSB
net cpm in each well (N)=C−NSB
The IC50 values for each compound were calculated from the non-linear regression curve of the data using Prism® graphics software.

Rat Galanin-1 Receptor = molecular target: T2, Rat Galanin-1 Receptor (Rattus norvegicus, UniProt Q62805); assay: Rat Galanin-1 Receptor Mediated Inhibition of Acetylcholine Release from Rat Brain Cortical Slices (superfusion); details: for Acetycholine Secretion, Stimulated / Acetycholine Secretion, Stimulated (% change): K+-evoked; for Acetycholine Secretion, Stimulated (% change) / Acetycholine Secretion, Basal (% change): percent in brackets, versus control
T2 sequence (Q62805 1-346): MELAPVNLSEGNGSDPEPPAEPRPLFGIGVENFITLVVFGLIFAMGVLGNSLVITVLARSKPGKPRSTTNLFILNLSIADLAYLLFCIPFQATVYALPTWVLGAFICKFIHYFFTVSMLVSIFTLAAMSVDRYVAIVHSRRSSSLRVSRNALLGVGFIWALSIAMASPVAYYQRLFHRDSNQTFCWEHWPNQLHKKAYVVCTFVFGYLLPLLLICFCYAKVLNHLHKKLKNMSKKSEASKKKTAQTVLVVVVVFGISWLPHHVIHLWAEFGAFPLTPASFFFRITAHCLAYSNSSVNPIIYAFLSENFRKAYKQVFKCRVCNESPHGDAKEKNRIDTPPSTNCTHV
Description: Rat brain cerebrocortical tissues were chopped into slices of 300×300×3,000 mm using a Mcllwain tissue chopper. […] After incubation, the slices were washed three times with ice-cold physiological solution and resuspended in 6 ml of cold solution. Equal aliquots of the tissue suspension were placed in each of 6 parallel superfusion chambers (Hugo Sachs Elektronik, March-Hugstetten, Germany). A circular piece of nylon mesh (pore size 250 um) was placed just below each chamber outlet in order to prevent the loss of tissue. The chambers were perfused against gravity with oxygenated Krebs-Ringer containing 1 mM physostigmine hemisulfate at a flow rate of 1 ml/min. […] The onset of superfusion was defined as time zero (t0). Starting at 30 min after t0, 10 min fractions of the effluent were collected.
Release of [^3H]acetylcholine was induced by superfusing tissues for 30 sec with 65 mM K^+-Krebs-Ringer solution (made by isomolar replacement of NaCl with KCl). Four potassium pulses were given respectively at 40 min (S1), 70 min (S2), 100 min (S3) and 130 min (S4) after t0. […] To permit construction of concentration-effect curves, concentrations of agents were increased 10 fold between each stimulus.
Following perfusion, the tissue was homogenized in 1 ml ethanol and aliquots of superfusates (0.4 ml) and tissue homogenates (0.04 ml) were added to 5 ml of Scintsafe PlusTM 50% (Fisher Scientific, Pittsburgh, Pa.) and radioactivity counted by liquid scintillation spectrometry. The total ^3H content in this procedure consisted mainly of [^3H]acetylcholine.
Tritium (^3H) efflux into the superfusate was calculated as the fraction of tritium content in the slices or synaptosomes at the onset of the respective collection period. For calculation of the stimulated tritium overflow, the estimated basal efflux (the average of the 10 min fractions immediately before and after each stimulation) was subtracted from the total tritium efflux during the 10 min fraction which began with the 30 sec K^+ pulse. This difference was then used to calculate the percent of K^+-evoked release of acetylcholine.
In order to quantify the in vitro effect of a drug on stimulated tritium outflow, the ratio of the fraction released by a given pulse, Sn, to that evoked by S1, was determined. Data presented below are expressed as the mean fractional tritium release ±S.E.M. Statistical differences between treatments were tested by the two-tailed Student's t test or the two factor ANOVA as appropriate. Individual differences in the dose-response curve was evaluated by the Newman-Keul multiple comparison.

[2] = Table II, formula (II) compounds, read-out: hGAL IC50
[3] = 10 μM + GAL, mean fractional tritium release

Row | Structure (SMILES) | IC50 [1, 2] [nM] | Acetycholine Secretion, Stimulated (% change) (Rat Galanin-1 Receptor; 1 μM + GAL) [%] | Acetycholine Secretion, Basal (% change) (Rat Galanin-1 Receptor; 1 μM + GAL) [%] | Acetycholine Secretion, Basal (% change) (Rat Galanin-1 Receptor; 10 μM + GAL) [%] | other results
1 | O=S1(=O)C=C(c2ccc(Br)cc2)S(=O)(=O)CC1 [Cmpd 2] | – | – | – | – | IC50 ([1]; Table I, formula (I) compounds, read-out: HGAL IC50): 1000 nM
2 | COc1cccc(C2=CS(=O)(=O)CCCS2(=O)=O)c1 [Cmpd 15] | 1100 | – | – | – | –
3 | O=S1(=O)C=C(c2cccc(F)c2)S(=O)(=O)CCC1 [Cmpd 16] | 1300 | −23.9 | −38.9 | −37 | Acetycholine Secretion, Stimulated (Rat Galanin-1 Receptor; 1 μM + GAL, mean fractional tritium release): 6.31; Acetycholine Secretion, Stimulated (Rat Galanin-1 Receptor; [3]): 8.27; Acetycholine Secretion, Basal (Rat Galanin-1 Receptor; [3]): 2.28
4 | O=S1(=O)C=C(c2ccc(I)cc2)S(=O)(=O)CCC1 [Cmpd 17] | – | −35.2 | −39.2 | −37 | Acetycholine Secretion, Stimulated (% change) (Rat Galanin-1 Receptor; 10 μM + GAL): −22.3%
5 | O=S1(=O)C=C(c2ccc(Cl)cc2)S(=O)(=O)CCC1 [Cmpd 21] | 1900 | – | – | – | –
